For data set [1], the system named is CCl4-induced mouse liver fibrosis model. The data set is described as follows: In vivo efficacy test in CCl4-induced mouse liver fibrosis model. Further details: species or system Male C57BL/6 mice. As to conditions: oral gavage, day 1 to day 28 of CCl4 modeling, vs. model group (FIG. 14). As for the experimental part: Male C57BL/6 mice, 22-27 grams in weight, purchased from Shanghai Lingchang Biotechnology Co., Ltd.
Mice were transferred to the experimental area after one week of quarantine and adaptation. Animals were randomly divided into groups according to body weight and housed in cages at 5 mice per cage. 20% CCl4 solution with CCl4: Olive oil=1:4 was prepared by dissolving CCl4 in olive oil at a dose of 0.5 μl/g in mice. The mice of model group were orally three times a week for 4 weeks for molding, and the mice of normal control group was administrated only with the same volume of olive oil orally. The subject compounds were administered orally by oral gavage in a volume of 10 ml/kg per animal. The Day 1 of CCl4 modeling was initiated while dosing was initiated until day 28. At the end of the experiment, animal liver samples were collected for histopathological analysis.

Data set [2] is described as follows: Solid stability test of crystal form A (high temperature, high humidity, strong light). The data set is classed as physicochemical. From the text: The samples were respectively placed in a high-temperature, high-humidity and strong-light storage container. The samples were taken at 5 and 10 days after placing, and the test results were compared with the initial test results at 0 days.

The subject of data set [3] is MCD-induced mouse NASH model. The experiment in a line: In vivo efficacy test in MCD-induced mouse NASH model. Further details: species or system C57BL/6 male mice. As to conditions: dosing from week 5 of 8 weeks MCD feed, vs. model group (FIG. 13). The method, then: SPF grade C57BL/6 male mice, 22-25 grams in weight.
MCD: methionine/choline deficient feed.
Liver Propylene Analytical Reagents: hematoxylin dyeing liquid, eosin dyeing liquid and Picro sirius dyeing liquid.
After the animals were adapted for one week in the facility, the normal control group was still fed with the normal feed, and other animals were fed with MCD feed instead. The drinking water didn't change and the feed was replaced once every 48 hours. Beginning at week 5, the remaining groups, except the normal control and model groups, were administrated with subject compound. The Experiment lasted for a total of 8 weeks. At the end of the experiment, animal liver samples were collected for histopathological analysis.

Consider `Cc1cc(F)c(C(=O)Nc2cccc(-c3nnc4n3CCCC4)n2)cc1-n1cnc(C2CC2)c1` [Crystal form A], for which the “Effect on liver fibrosis (liver histopathology)” value in data set [1] (3 mg/Kg BID), in data set [1] (30 mg/Kg BID), in data set [3] (6 mg/Kg BID) and in data set [3] (60 mg/Kg BID) was “significant effect on improving liver fibrosis” in each case. Further, the Crystal form result in data set [2] (High Humidity (25° C./Relative Humidity 90%, Open), Day 5) is recorded as “Crystal form A”; in data set [2] (High Humidity (25° C./Relative Humidity 90%, Open), Day 10) it was “Crystal form A”; in data set [2] (High Temperature (60° C., Open), Day 5), “Crystal form A”; in data set [2] (High Temperature (60° C., Open), Day 10) it was “Crystal form A”; in data set [2] (Strong light (5000 lx, closed), Day 5), “Crystal form A”; in data set [2] (Strong light (5000 lx, closed), Day 10), “Crystal form A”. Moreover, the Crystal form result in data set [2] (initial, Day 0) is on record as “Crystal form A”. The “Solid stability (conclusion)” value in data set [2] (high temperature, high humidity and strong light) is given as “good stability”.

Values taken from patent US11814382B2 (FUJIAN COSUNTER PHARMACEUTICAL CO., LTD., priority 2018, dated 2023).
